Test results: ChEMBL document CHEMBL1138723, “Design of bivalent ligands using hydrogen bond linkers: synthesis and evaluation of inhibitors for human beta-tryptase” (Bioorg Med Chem Lett, 2004)

Key:
Tryptase beta-1 = Tryptase beta-1 (Homo sapiens, UniProt Q15661); test: Inhibitory activity against human mast cell tryptase beta
Cytochrome P450 2C9 = Cytochrome P450 2C9 (Homo sapiens, UniProt P11712); test: Inhibitory activity against cytochrome P450 determined using human liver microsome upon 15 min incubation with probes substrates Tolbutamide (2C9); assay type: ADME, microsomes
[1] = target: Voltage-gated inwardly rectifying potassium channel KCNH2 (Homo sapiens, UniProt Q12809); test: Inhibitory activity against human Potassium channel HERG
Cytochrome P450 2C19 = Cytochrome P450 2C19 (Homo sapiens, UniProt P33261); test: Inhibitory activity against cytochrome P450 determined using human liver microsome upon 15 min incubation with probes substrates s-mephenytoin (2C19); assay type: ADME, microsomes
Chain of Cytochrome P450 2C19 (P33261 whole entry): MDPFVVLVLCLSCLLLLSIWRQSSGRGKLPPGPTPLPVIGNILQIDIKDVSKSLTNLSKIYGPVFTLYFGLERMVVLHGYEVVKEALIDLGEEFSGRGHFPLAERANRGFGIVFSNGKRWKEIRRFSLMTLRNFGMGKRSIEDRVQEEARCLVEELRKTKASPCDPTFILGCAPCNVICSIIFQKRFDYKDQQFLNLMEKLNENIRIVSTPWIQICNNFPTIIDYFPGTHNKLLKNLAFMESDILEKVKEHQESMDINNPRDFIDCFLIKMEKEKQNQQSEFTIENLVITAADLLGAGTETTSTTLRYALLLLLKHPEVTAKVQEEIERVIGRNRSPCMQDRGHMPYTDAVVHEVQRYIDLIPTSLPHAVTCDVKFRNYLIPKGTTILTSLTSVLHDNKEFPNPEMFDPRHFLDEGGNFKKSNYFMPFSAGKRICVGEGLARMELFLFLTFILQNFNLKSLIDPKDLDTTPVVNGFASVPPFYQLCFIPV

Chain of Tryptase beta-1 (Q15661 whole entry): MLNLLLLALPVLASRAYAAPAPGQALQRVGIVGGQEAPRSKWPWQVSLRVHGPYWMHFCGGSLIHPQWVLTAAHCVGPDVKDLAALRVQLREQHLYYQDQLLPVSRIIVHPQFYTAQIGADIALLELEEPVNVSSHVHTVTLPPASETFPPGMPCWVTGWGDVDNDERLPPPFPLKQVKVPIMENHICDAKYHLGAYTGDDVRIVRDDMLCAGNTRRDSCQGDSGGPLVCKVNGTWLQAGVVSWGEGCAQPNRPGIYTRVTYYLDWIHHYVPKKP
Chain of Cytochrome P450 2C9 (P11712 whole entry): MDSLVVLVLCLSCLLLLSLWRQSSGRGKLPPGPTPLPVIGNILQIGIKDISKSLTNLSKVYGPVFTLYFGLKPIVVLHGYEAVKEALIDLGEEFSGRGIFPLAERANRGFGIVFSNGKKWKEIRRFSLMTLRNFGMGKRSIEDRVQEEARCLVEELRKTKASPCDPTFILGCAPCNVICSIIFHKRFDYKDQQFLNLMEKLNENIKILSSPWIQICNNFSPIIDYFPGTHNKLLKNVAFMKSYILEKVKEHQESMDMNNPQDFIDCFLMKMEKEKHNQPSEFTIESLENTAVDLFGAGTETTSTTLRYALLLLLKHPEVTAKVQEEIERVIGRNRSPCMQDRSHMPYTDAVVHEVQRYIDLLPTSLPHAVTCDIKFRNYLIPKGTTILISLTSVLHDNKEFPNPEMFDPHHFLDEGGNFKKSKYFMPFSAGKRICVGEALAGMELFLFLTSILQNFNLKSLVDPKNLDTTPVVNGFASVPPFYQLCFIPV
Chain of Voltage-gated inwardly rectifying potassium channel KCNH2 (Q12809 whole entry): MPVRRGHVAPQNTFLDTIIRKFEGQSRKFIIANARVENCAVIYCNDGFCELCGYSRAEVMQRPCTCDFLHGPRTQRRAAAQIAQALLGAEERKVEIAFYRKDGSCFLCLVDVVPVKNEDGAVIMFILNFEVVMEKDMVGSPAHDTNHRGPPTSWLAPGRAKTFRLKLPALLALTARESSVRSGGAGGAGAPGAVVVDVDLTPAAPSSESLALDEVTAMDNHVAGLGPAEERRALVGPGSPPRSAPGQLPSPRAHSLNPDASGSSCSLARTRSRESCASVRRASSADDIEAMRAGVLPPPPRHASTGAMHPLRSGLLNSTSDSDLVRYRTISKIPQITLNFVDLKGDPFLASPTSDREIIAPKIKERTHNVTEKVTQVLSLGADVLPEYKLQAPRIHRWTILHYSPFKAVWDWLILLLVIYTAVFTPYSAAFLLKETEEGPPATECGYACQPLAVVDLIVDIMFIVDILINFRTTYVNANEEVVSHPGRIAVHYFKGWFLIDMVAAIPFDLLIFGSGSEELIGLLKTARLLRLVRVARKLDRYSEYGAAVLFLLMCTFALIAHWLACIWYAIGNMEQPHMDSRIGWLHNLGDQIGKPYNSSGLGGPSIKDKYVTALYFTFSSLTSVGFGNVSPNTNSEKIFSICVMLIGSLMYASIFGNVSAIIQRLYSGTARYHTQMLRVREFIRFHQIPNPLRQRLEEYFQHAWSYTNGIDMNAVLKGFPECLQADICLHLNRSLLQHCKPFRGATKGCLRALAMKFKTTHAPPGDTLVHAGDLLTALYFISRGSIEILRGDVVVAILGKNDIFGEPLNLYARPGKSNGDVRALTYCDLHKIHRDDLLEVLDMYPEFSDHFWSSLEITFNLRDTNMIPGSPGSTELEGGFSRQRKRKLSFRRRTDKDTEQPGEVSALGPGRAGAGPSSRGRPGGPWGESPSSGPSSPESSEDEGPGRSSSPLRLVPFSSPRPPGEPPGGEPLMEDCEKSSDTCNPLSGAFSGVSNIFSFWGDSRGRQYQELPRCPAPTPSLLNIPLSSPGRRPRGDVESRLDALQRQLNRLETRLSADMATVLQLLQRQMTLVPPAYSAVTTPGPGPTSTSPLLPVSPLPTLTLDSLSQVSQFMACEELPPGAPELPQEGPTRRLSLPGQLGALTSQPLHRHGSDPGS

Row | Structure (SMILES) | Ki (Tryptase beta-1) | IC50 (Cytochrome P450 2C9) | IC50 [1] | IC50 (Cytochrome P450 2C19)
1 | NCc1ccc(F)c(C2CCN(C(=O)c3cccc(-c4nc(-c5cccs5)no4)c3)CC2)c1 | 4.3 nM | 480 nM | 800 nM | 2190 nM
2 | NCc1ccc(F)c(C2CCN(C(=O)c3cc(C(=O)O)cc(-c4nc(-c5cccs5)no4)c3)CC2)c1 | 88 nM | > 50000 nM | 76800 nM | > 50000 nM
3 | NCc1ccc(F)c(C2CCN(C(=O)c3cc(C(N)=O)cc(-c4nc(-c5cccs5)no4)c3)CC2)c1 | 1.3 nM |  |  | 

Further lines, with some results ahead:

Row | Ki (Tryptase beta-1) | Structure (SMILES) | IC50 (Cytochrome P450 2C9) | IC50 [1] | IC50 (Cytochrome P450 2C19)
4 | 59 nM | CCOC(=O)c1cc(C(=O)N2CCC(c3cc(CN)ccc3F)CC2)cc(-c2nc(-c3cccs3)no2)c1 |  |  | 
5 | 1.5 nM | NCc1cccc(C2CCN(C(=O)c3cc(C(N)=O)cc(-c4nc(-c5cccs5)no4)c3)CC2)c1 |  |  | 
